Data reported in US11377442B2, “Small molecule agonists and antagonists of NR2F6 activity” (ZANDER THERAPEUTICS, INC., priority 2016, dated 2022).
“And” between values parts separate entries of the source, which are not always exact repeats. Equal values may be shown once.

Experiments:
hCyt P450 [1] = biological target: hCyt P450 (Homo sapiens, UniProt P33261); test: CYP inhibition; assay type: in vitro ADME; details: CYP 2C19-Mephenytoin
hCyt P450 [2] = biological target: hCyt P450 (Homo sapiens, UniProt P08684); test: CYP inhibition; assay type: in vitro ADME
hCyt P450 [3] = test: CYP inhibition; assay type: in vitro ADME, human
hCyt P450 [4] = biological target: T1, hCyt P450 (Homo sapiens, UniProt P05177); test: CYP inhibition; assay type: in vitro ADME; details: CYP 1A2-Phenacetin
T1 sequence (P05177 1-516): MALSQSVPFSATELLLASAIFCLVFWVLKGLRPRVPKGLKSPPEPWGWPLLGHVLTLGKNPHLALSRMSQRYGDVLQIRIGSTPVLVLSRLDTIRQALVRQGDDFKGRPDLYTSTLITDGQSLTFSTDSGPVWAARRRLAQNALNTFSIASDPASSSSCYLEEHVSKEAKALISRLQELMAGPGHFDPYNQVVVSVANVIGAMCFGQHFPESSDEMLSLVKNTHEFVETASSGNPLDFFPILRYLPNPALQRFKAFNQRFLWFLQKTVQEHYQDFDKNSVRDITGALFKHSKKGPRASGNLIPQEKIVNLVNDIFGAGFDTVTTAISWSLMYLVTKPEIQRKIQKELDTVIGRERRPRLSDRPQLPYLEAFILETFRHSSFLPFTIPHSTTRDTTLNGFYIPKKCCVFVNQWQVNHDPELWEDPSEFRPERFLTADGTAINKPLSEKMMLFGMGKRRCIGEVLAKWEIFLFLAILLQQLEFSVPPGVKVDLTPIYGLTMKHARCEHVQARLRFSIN

hCyt P450 [5] = biological target: T2, hCyt P450 (Homo sapiens, UniProt P10632); test: CYP inhibition; assay type: in vitro ADME; details: CYP 2C8-Amodiaquine
T2 sequence (P10632 1-490): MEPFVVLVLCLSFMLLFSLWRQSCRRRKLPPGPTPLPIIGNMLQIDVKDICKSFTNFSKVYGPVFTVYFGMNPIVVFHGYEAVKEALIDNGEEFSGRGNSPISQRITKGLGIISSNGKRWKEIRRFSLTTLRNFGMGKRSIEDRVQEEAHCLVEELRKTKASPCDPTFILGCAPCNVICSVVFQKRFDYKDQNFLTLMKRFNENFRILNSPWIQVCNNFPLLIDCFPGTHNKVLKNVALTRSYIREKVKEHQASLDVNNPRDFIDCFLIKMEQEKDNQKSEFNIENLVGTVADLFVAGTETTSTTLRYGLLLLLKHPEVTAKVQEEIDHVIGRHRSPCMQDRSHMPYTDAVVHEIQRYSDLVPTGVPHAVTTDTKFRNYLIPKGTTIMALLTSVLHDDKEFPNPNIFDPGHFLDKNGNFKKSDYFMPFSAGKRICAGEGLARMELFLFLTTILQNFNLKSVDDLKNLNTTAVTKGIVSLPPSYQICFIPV

hCyt P450 [6] = biological target: hCyt P450 (Homo sapiens, UniProt P10635); test: CYP inhibition; assay type: in vitro ADME; details: CYP 2D6-Dextromethorphan
hCyt P450 [7] = biological target: hCyt P450 (Homo sapiens, UniProt P11712); test: CYP inhibition; assay type: in vitro ADME; details: CYP 2C9-Tolbutamide
Human PBMC = test: Cytokines release by hPBMC (PMA+ionomycin activated); assay type: cell-based
Protocol: FIGS. 18A and 18B show charts of cytokines release by hPBMC and cytotox for Compound 18. For cytokines release and cytotox on hPBMCs compound was tested at 1.25, 2.5, 5, 10, 25 and 50 uM in duplicates. For cytotox on HEK293, HEK293 pGL4 and HEK293 NR2F6 (full length) compound was tested from 50 uM with dilution step 3.16 in duplicates. Human PBMC were activated by 10 ng/mL PMA+500 ng/mL ionomycin. Data were normalized to controls with (100%) w/o compounds.
FIGS. 16A and 16B show results of cytokins release by hPBMC and cytotox for Compound C11. For cytokines release and cytotox on hPBMCs, the Compound was tested at 1.25, 2.5, 5, 10, 25 and 50 uM in duplicates. For cytotox on HEK293, HEK293 pGL4 and HEK293 NR2F6 (full length) cmpd was tested from 50 uM with dilution step 3.16 in duplicates.
The human PBMC were activated by 10 ng/mL PMA+500 ng/mL ionomycin. Data were normalized to controls with (100%) w/o compounds.
For cytokines release and cytotox on hPBMCs each compound was tested at 1.25, 2.5, 5, 10, 25 and 50 uM in duplicates. Human PBMC were activated by 10 ng/mL PMA+500 ng/mL ionomycin. Data were normalized to controls with (100%) w/o cmpds.
FIGS. 61A-61E show further results of cytokine release by hPBMC for Compound D136. Each compound was tested at 1.25, 2.5, 5, 10, 25 and 50 uM in duplicates.
Human PBMC were activated by 10 ng/mL PMA+500 ng/mL ionomycin. Data were normalized to controls with (100%) w/o cmpds.

pH stability = assay type: physicochemical
[8] = Caco-2 permeability assay; assay type: in vitro ADME; details: human
Protocol: (§1) A Caco-2 permeability assay was performed on Compound D136.

Caco-2 = Caco-2 permeability assay; assay type: in vitro ADME
Protocol: as §1

[9] = Stability in human plasma; assay type: in vitro ADME
Stability in rat plasma = assay type: in vitro ADME

hCyt P450 (Homo sapiens, UniProt P08684), sequence (P08684 whole entry): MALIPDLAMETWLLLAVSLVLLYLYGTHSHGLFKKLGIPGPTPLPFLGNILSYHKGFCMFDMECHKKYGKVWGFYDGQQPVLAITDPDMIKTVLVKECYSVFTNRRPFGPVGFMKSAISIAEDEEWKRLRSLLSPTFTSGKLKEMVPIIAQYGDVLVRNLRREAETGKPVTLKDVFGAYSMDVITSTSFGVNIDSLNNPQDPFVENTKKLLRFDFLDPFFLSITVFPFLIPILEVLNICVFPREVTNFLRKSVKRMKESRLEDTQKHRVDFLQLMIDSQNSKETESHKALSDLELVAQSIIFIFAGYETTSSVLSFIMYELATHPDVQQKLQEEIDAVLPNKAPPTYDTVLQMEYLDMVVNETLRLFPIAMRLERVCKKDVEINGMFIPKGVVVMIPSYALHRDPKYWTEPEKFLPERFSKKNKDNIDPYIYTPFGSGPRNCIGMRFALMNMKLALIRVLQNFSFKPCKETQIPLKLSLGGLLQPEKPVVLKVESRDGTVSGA
hCyt P450 (Homo sapiens, UniProt P10635), sequence (P10635 whole entry): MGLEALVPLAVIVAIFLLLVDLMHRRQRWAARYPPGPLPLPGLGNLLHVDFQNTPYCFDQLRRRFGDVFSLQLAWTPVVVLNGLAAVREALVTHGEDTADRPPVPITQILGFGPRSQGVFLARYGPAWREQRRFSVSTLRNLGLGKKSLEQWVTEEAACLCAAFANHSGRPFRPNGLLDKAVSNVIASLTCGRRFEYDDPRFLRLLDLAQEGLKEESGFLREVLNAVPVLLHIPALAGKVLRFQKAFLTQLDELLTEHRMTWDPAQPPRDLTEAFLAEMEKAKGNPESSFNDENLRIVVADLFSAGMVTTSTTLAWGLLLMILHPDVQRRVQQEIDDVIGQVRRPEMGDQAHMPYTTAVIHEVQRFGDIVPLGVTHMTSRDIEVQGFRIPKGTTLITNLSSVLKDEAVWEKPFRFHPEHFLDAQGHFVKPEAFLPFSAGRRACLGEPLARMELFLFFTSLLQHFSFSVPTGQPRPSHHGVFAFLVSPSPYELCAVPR
hCyt P450 (Homo sapiens, UniProt P33261), sequence (P33261 whole entry): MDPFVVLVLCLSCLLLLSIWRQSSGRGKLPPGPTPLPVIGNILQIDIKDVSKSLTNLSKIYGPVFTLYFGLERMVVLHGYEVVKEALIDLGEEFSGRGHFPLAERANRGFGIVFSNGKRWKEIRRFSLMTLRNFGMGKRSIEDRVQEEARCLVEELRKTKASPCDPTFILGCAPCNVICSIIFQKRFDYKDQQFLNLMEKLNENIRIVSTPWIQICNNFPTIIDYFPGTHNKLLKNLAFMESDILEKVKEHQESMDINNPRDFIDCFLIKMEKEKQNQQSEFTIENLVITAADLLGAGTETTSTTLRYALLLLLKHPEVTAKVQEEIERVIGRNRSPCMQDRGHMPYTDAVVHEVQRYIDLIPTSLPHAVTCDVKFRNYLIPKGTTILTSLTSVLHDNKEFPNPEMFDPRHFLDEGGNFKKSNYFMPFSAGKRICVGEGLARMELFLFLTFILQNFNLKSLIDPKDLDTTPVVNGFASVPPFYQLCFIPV
hCyt P450 (Homo sapiens, UniProt P11712), sequence (P11712 whole entry): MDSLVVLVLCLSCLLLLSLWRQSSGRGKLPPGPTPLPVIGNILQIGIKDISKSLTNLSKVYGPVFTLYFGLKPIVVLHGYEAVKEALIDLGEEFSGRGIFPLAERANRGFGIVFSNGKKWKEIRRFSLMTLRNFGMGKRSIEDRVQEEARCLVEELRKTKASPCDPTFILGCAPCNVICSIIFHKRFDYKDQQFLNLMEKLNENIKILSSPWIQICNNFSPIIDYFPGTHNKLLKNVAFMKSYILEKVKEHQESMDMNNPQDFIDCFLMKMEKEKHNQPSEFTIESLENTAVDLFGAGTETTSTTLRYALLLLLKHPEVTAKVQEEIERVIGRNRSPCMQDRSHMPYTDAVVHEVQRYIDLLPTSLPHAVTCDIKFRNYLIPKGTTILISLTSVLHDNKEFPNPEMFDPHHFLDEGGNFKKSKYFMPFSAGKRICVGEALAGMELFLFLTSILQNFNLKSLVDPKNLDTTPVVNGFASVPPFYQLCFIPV

## COCCN[C@H]1CS(=O)(=O)C[C@@H]1S(=O)(=O)c1ccc(Cl)cc1 [Compound D136]
hCyt P450 [1]
  CYP inhibition conclusion: no inhi-
  IC50: > 10 µM
hCyt P450 [2]; CYP 3A4-Midazolam
  CYP inhibition conclusion: no inhi-
  IC50: > 10 µM
hCyt P450 [2]; CYP 3A4-Testosterone
  CYP inhibition conclusion: no inhi-
  IC50: > 10 µM
hCyt P450 [3]
  inhibition of 7 major isoforms of hCyt P450: no inhibition
hCyt P450 [4]
  CYP inhibition conclusion: no inhi-
  IC50: > 10 µM
hCyt P450 [5]
  CYP inhibition conclusion: no inhi-
  IC50: > 10 µM
hCyt P450 [6]
  CYP inhibition conclusion: no inhi-
  IC50: > 10 µM
hCyt P450 [7]
  CYP inhibition conclusion: no inhi-
  IC50: > 10 µM
Human PBMC; at high release activation of others cytokines
  IL1b release activation by hPBMC: No IL1b release activation
Human PBMC; human PBMC
  IL-1 inhibition: Selectively inhibits
  IL-17α inhibition: Selectively inhibits
  TNF-α inhibition: Selectively inhibits
pH stability; pH2
  pH stability at pH2: extremely stable
pH stability; pH7
  pH stability at pH7: extremely stable
[8]; Caco-2, Mean
  Papp A→B: 34.2 ×10⁻⁶ cm/s
  Papp B→A: 51.1 ×10⁻⁶ cm/s
[8]; Caco-2, individual replicates
  Papp A→B: 33.6 ×10⁻⁶ cm/s
  Papp B→A: 47.9 ×10⁻⁶ cm/s
Caco-2
  Caco-2 permeability: highly permeable
Caco-2; individual replicates
  Papp A-B: 36.0 10^−6 cm/s and 33.1 10^−6 cm/s
  Papp B-A: 54.6 10^−6 cm/s and 50.9 10^−6 cm/s
[9]
  stability in human plasma: Stable
Stability in rat plasma
  stability in rat plasma: Stable
